Measured values as given in patent publication US11833119B2, “Combination therapies for the treatment of hepatocellular carcinoma” (priority 2018, dated 2023).

How the values were obtained:
[1] = tested on: Hep3B xenograft (human hepatocellular cancer cell line); test: Hep3B cells xenograft in vivo study, antitumor activity; design: species or system BALB/c nu/nu female mice; conditions: for Tumor growth inhibition % (TGI): 53 days
Experimental: The cell line used, Hep3B (also called HEP3B.1-7), was sourced from American Type Culture Collection (ATCC), verified free of […] contamination and verified for identity by short tandem repeat analysis of 9 markers.
For the human hepatocellular cancer cell line Hep3B xenografts, Hep3B cells were cultured in RPMI1640 medium containing 10% FBS at 37° C. in a 5% CO2 atmosphere and kept in exponential growth phase. For harvesting, the cells were washed with PBS, incubated with 0.25% trypsin-EDTA, and suspended in a 1:1 mixture of RPMI1640 medium containing 10% FBS. To prepare the inoculum at a final concentration of 5×10^7 cells/mL, the cell were spun and resuspended in RPMI1640 and Matrigel (Corning). To generate xenografts, 0.1-mL of the inoculum was injected subcutaneously into the right flank region of BALB/c nu/nu female mice, approximately 8-week-old, weighing 18-20 g, giving a final concentration of 5×10^6 cells/mouse.
When the mean tumor volume (TV) reached approximately 170 mm^3 (10 days after implantation), mice were selected based on their TVs, and were sorted into multiple treatment groups with 8 animals per group. Per os (PO) treatment with Compound 1 (300 mg/kg for Hep3B and 500 mg/kg for LIX125) alone or in combination with lenvatinib vehicle (control) or lenvatinib (10 mg/kg or 3 mg/kg) administered once daily (QD). Additional groups included treatment with lenvatinib (10 mg/kg or 3 mg/kg) in combination with Compound 1 vehicle. (Lenvatinib vehicle includes the vehicle in which lenvatinib is administered; but, without any lenvatinib. Likewise, Compound 1 vehicle includes the vehicle in which Compound 1 is administered; but, without any Compound 1.)
The administration volume (0.1 mL/10 g body weight) was calculated from the individual mouse body weight (BW) before administration. Body weights were measured daily and tumor measurements were performed twice weekly. Mice with >20% body weight loss compared with their day 1 body weight or bearing tumors with the longest diameter […] were immediately euthanized to prevent any pain or suffering for the animal.
(§1) The tumor volume (TV) in mm^3 was calculated according to the following formula: TV=length×width^2×0.5 length: largest diameter of tumor (mm) width: diameter perpendicular to length (mm). The tumor growth inhibition % (TGI) was calculated according to the following formula: Tumor growth inhibition % (TGI)=[(Average control TV day X−Treatment TV day X)/(Average control TV day X)]×100, where day X is any day of the treatment. The antitumor effects of the treatment, partial regression (PR) and complete regression (CR), stable disease (SD), and progressive disease (PD) were defined as follows: […]
PD: 3 consecutive measurements >120% of starting volume or 3 consecutive increasing measurements from best response; SD: 3 consecutive measurements >50% and <120% of starting volume; PR: 3 consecutive measurements <50% of starting volume; CR: 3 consecutive measurements <30 mm^3.
Data represent the mean±SEM for tumor volume (N=8). The differences in TV between groups were analyzed by multiple unpaired t-tests with significance determined using the Holm-Sidak method. Statistical analyses were performed using the GraphPad Prism version 7 (GraphPad Software, La Jolla, CA).
To determine whether lenvatinib enhances tumor growth inhibition (TGI) exerted by Compound 1, the Hep3B cell line was grown as a xenograft in female nude immunocompromised mice. Tumor bearing mice were orally treated daily for 53 days with (a) 300 mg/kg Compound 1 as single agent with lenvatinib vehicle; (b)(i) 10 mg/kg lenvatinib as a single agent with Compound 1 vehicle; (b)(ii) 3 mg/kg lenvatinib as a single agent with Compound 1 vehicle; (c)(i) 300 mg/kg Compound 1 and 10 mg/kg lenvatinib in combination; or (c)(ii) 300 mg/kg Compound 1 and 3 mg/kg lenvatinib in combination.

[2] = tested on: LIX125, a hepatocellular carcinoma patient derived xenograft (PDX) model; test: LIX125 PDX xenograft in vivo study, antitumor activity; conditions: 32 days
Experimental: The human primary hepatocellular model LIX125 from ChemPartner (shangpharma.com) was implanted into the female severe combined immunodeficiency (SCID) mice. When the tumors developed in mice, they were sacrificed and the resected tumors were implanted into female NU/NU mice for tumor preservation, histological diagnosis and in vivo efficacy study. Solid tumor tissues were depleted of necrotic components, cut into 10-15 mg pieces and mixed. Three to five pieces were mixed with […] Matrigel and implanted into a flank of 6-8 week old female NU/NU immune compromised mice weighing 18-20 g. All of the primary tumors utilized in this study had undergone 3 to 5 passages in vivo and the tumor histology of each was maintained over the serial transplantation.
When the mean tumor volume (TV) reached approximately 170 mm^3 (10 days after implantation), mice were selected based on their TVs, and were sorted into multiple treatment groups with 8 animals per group. Per os (PO) treatment with Compound 1 (300 mg/kg for Hep3B and 500 mg/kg for LIX125) alone or in combination with lenvatinib vehicle (control) or lenvatinib (10 mg/kg or 3 mg/kg) administered once daily (QD). […]
The administration volume (0.1 mL/10 g body weight) was calculated from the individual mouse body weight (BW) before administration. Body weights were measured daily and tumor measurements were performed twice weekly. […]
as §1, with “treatment.” for “treatment. The antitumor effects of the treatment, partial regression (PR) and complete regression (CR), stable disease (SD), and progressive disease (PD) were defined as follows:”
Data represent the mean±SEM for tumor volume (N=8). The differences in TV between groups were analyzed by multiple unpaired t-tests with significance determined using the Holm-Sidak method. […]

Row | SMILES | Tumor growth inhibition % (TGI) ([1]; Compound 1 300 mg/kg PO QD single agent with lenvatinib vehicle, vs vehicle control P<0.00001) | animals with progressive disease (PD) ([1]; Compound 1 300 mg/kg single agent, PD: 3 consecutive measurements >120% of starting volume or 3 consecutive increasing measurements from best response) | Tumor growth inhibition % (TGI) ([2]; Compound 1 500 mg/kg PO QD single agent, vs vehicle controls p>0.05) | Tumor growth inhibition % (TGI) ([1]; lenvatinib 3 mg/kg PO QD single agent with Compound 1 vehicle, vs vehicle controls P>0.05) | animals with progressive disease (PD) ([1]; lenvatinib 3 mg/kg single agent) | Tumor growth inhibition % (TGI) ([1]; lenvatinib 10 mg/kg PO QD single agent with Compound 1 vehicle, vs vehicle controls P<0.00005) | animals with progressive disease (PD) ([1]; lenvatinib 10 mg/kg single agent) | Tumor growth inhibition % (TGI) ([2]; lenvatinib 3 mg/kg PO QD single agent, vs vehicle control p>0.05) | Tumor growth inhibition % (TGI) ([2]; lenvatinib 10 mg/kg PO QD single agent, vs vehicle control p<0.0007)
1 | C=CC(=O)Nc1cc(N2CCN(CC)CC2)ccc1Nc1cc(N(C)C(=O)Nc2c(Cl)c(OC)cc(OC)c2Cl)ncn1 [Compound 1, N-(2-((6-(3-(2,6-dichloro-3,5-dimethoxyphenyl)-1-methylureido)pyrimidin-4-yl)amino)-5-(4-ethylpiperazin-1-yl)phenyl)acrylamide] | 81% | 6/8 | 60% | – | – | – | – | – | –
2 | COc1cc2nccc(Oc3ccc(NC(=O)NC4CC4)c(Cl)c3)c2cc1C(N)=O [Lenvatinib, 4-[3-chloro-4-(N′-cyclopropylureido)phenoxy]-7-methoxyquinoline-6-carboxamide] | – | – | – | 23% | 8/8 | 58% | 8/8 | 44% | 72%
